Test results published in patent publication US5622960A, “Topoisomerase II inhibitors and therapeutic uses therefor” (The United States of America as represented by the …, priority 1992, dated 1997).

Experiments:
SV40 DNA = test: DNA unwinding (intercalation) assay with excess topoisomerase I; type: biochemical, simian virus 40; settings: relaxed SV40 DNA, excess topoisomerase I; concentrations as high as 1 mM
Protocol: To assess DNA unwinding, see Pommier et al., Nucleic Acids Res. 15: 6713-31(1987), the DNA was relaxed first by treatment for 15 minutes with top 1 (20 units), after which the test agent was added. These steps were carried out at 37° C. DNA-agent-top 1 mixtures were incubated for an additional 30 minutes and then stopped as described above. Samples were then subjected to agarose gel electrophoresis as described above.
This was also the case for the 2 azatoxin isomers, 8 and 10, and for the demethylepipodophyllotoxins, DMDP and DMEP. Similar results were obtained with supercoiled DNA.

Topoisomerase II = test: topoisomerase II inhibition: drug-induced DNA cleavage in presence of HL-60 extract or purified top 2; type: biochemical; settings: for top 2 inhibition / top 2 activity (in words): DNA cleavage assays; for Topoisomerase II inhibition: class symbols without legend, HL-60 extract or purified top 2; for effect of hydroxyl substitution on top 2 activity: 1 versus 6, DMDP versus DMEP
Source text: Because the azatoxin skeleton is synthetically accessible, a large number of derivatives are readily prepared and screened for top 2 inhibitory activity in accordance with the present invention. Such screening can be effected by means of an in vitro assay which employs purified top 2 and ^32 P-end-labelled DNA. In such an assay, top 2 inhibition by a test substance results in DNA fragmentation which can be detected by agarose gel electrophoresis, as described by Fesen and Pommier, J. Biol. Chem. 19:11354-59 (1989); by the filter-binding assay described by Pommier et al., Biochem. 24:6410-16 (1985); or by the sodium dodecylsulfate precipitation assay employed by Nelson et al., Proc. Nat'l Acad. Sci. USA81: 1361-65 (1984).
(§1) Chemicals, and enzymes: Azatoxin and its derivatives, as well as the demethyldesoxypodophyllotoxin (DMDP) and demethylepipodophyllotoxin (DMEP), were synthesized by conventional methods. The compounds m-AMSA and mitoxantrone were obtained from the Drug Synthesis and Chemistry Branch, National Cancer Institute, Bethesda, Md. The compounds VP-16 and VM-26 were obtained from Bristol-Myers Company (Wallingford, Conn.). Drug stock solutions were made in dimethylsulfoxide at 10 mM. Further dilutions were made in distilled water. Various other reagents, including simian virus 40 (SV40) and c-myc human DNA inserts in plasmid pBR322, restriction endonucleases, DNA topoisomerase I, T4 polynucleotide kinase, calf intestine phosphatase, agarose and polyacrylamide/bis, were purchased from Bethesda Research Laboratories (Gaithersburg, Md.), from the American Type Culture Collection (Rockville, Md.) or from New England Biolabs (Beverly, Mass.). [Gamma-^32 P]ATP was purchased from New England Nuclear Research Products (Boston, Mass.).
(§2) DNA topoisomerase II was purified from mouse leukemia L1210 cell nuclei as described, for example, by Pommier et al. (1985), supra, and was stored at -70° C. in 40% (v/v) glycerol, 0.35 M NaCl, 5 mM MgCl2, 1 mM KH2 PO4, 0.2 mM dithiothreitol and 0.1 mM phenylmethanesulfonyl fluoride (pH 6.4). The purified enzyme yielded a single 170 kDa band after silver staining of SDS-polyacrylamide gels, in accordance with the description of Pommier et al., Cancer Res. 46: 3075-81 (1986).
(§3) Preparation of end-labeled DNA fragments: DNA fragments were 5' end-labeled as described, for example, by Fesen and Pommier (1989), supra. Briefly, native DNA was first linearized with a restriction enzyme, […] then the 5'-DNA termini were dephosphorylated with calf alkaline phosphatase and labeled with [gamma-^32 P]ATP using T4 polynucleotide kinase. For double-strand breaks assays using HL-60 nuclear extract, SV40 DNA was digested with BclI endonuclease and labeled at both DNA termini. For sequencing experiments, SV40 and c-myc DNAs were first 5'-end labeled at the XhoII and XbaI restriction sites, respectively. Then, in order to generate uniquely 5'-end-labeled fragments, labeled DNA was subjected to a second enzyme digestion, PflMI for SV40, and EcoRI plus HindIII for c-myc DNA. The resulting DNA fragments were separated by agarose gel electrophoresis and isolated by electroelution. Purification by phenol-chloroform extraction and ethanol precipitation were included between each step and at the end of the labeling procedures, pursuant to Pommier et al., J. Molec. Biol. 222: 909-24 (1991).
Topoisomerase II-induced DNA cleavage reactions: DNA fragments were equilibrated with or without drug in 10 mM Tris-HCl, pH 7.5, 50 mM KCl, 5 mM MgCl2 0.1 mM EDTA, 1 mM ATP and 15 μg/ml bovine serum albumin for 5 minutes before addition of purified topoisomerase II (40 to 70 ng) or HL-60 nuclear extract in 20 μl final reaction volume. Reactions were stopped by adding sodium dodecyl sulfate (SDS) to a final concentration of 1% and proteinase K to 400 μg/ml, followed by incubation for 1 hour at 40° C. […]

[1] = test system: top 2 (HL-60 nuclear extract); test: Induction of DNA double-strand breaks in SV40 DNA in presence of HL-60 nuclear extract; type: biochemical; settings: up to 1 mM
Protocol: as §1
as §3, with “Purification by phenol-chloroform extraction and ethanol precipitation were included between each step and at the end of the labeling procedures, pursuant to Pommier et al., J. Molec. Biol. 222: 909-24 (1991).” left out
For agarose gel analysis, 3 μl (10×) loading buffer (0.3% bromophenol blue, 16% Ficoll, 10 mM Na2 HPO4) was added to each sample which was then heated at 65° C. for 1-2 minutes before loading into an agarose gel made in (1×) TBE (89 mM Tris, 89 mM boric acid, 2 mM EDTA, pH8), in accordance with Fesen & Pommier (1989), supra. […] The quantification of drug-induced DNA double-strand breaks in the presence of HL-60 nuclear extract was effected as described in the next paragraph.
Radioactive gels were counted in betascope 603 blot analyzer. […] Drug-induced cleavage was expressed as: [formula] where C. and T. are the counts for cleaved and total DNA, respectively, in presence of nuclear extract without drug.
Drug-induced DNA double-strand breaks were measured first in SV40 DNA in the presence of HL-60 nuclear extracts. […]

[2] = target: T1, purified murine leukemia top 2 (Mus musculus, UniProt Q01320); test: Sequencing of topoisomerase II cleavage sites (SV40 and c-myc DNA); type: biochemical
T1 construct: single 170 kDa band on silver-stained SDS-PAGE
T1 sequence (Q01320 whole entry): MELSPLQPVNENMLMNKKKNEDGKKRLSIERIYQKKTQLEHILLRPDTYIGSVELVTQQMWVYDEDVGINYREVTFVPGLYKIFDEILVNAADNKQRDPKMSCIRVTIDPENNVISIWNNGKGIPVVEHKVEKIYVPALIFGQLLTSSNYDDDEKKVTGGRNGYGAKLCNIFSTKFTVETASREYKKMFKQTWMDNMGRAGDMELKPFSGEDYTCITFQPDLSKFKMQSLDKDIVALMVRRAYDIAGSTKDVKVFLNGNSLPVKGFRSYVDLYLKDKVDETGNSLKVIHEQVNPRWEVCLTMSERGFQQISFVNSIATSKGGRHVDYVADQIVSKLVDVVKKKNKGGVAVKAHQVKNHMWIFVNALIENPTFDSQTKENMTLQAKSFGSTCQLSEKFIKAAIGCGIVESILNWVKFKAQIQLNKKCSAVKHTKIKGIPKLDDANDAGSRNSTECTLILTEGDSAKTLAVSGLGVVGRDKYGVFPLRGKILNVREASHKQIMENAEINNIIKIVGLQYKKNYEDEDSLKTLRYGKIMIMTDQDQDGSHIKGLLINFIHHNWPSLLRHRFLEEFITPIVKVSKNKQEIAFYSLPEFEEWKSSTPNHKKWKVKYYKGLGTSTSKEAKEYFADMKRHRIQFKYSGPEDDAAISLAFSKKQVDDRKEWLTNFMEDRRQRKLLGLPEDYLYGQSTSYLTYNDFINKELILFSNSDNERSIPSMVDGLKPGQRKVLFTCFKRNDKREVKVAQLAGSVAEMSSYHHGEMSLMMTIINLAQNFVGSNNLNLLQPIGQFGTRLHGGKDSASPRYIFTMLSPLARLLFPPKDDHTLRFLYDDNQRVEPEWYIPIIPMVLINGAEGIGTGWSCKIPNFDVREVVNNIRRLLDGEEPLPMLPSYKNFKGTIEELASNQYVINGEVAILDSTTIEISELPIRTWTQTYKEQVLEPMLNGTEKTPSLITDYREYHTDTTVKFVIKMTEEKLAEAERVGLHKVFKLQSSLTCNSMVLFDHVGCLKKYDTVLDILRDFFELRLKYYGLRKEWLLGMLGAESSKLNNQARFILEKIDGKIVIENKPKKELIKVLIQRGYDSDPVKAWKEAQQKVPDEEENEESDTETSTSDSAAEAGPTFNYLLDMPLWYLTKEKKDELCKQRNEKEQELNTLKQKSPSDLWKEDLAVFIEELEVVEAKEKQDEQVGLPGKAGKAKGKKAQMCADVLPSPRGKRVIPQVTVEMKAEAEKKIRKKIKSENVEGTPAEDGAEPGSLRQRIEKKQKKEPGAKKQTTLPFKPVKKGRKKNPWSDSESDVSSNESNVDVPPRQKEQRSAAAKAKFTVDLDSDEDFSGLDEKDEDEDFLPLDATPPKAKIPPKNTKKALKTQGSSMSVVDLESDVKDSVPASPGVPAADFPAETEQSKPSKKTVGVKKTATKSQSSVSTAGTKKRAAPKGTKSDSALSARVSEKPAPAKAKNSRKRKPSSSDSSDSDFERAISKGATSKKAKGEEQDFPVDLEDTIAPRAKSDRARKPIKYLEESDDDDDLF
Protocol: as §1, §2, §3
Topoisomerase II-induced DNA cleavage reactions: DNA fragments were equilibrated with or without drug in 10 mM Tris-HCl, pH 7.5, 50 mM KCl, 5 mM MgCl2 0.1 mM EDTA, 1 mM ATP and 15 μg/ml bovine serum albumin for 5 minutes before addition of purified topoisomerase II (40 to 70 ng) or HL-60 nuclear extract in 20 μl final reaction volume. Reactions were stopped by adding sodium dodecyl sulfate (SDS) to a final concentration of 1% and proteinase K to 400 μg/ml, followed by incubation for 1 hour at 40° C.
For DNA sequence analysis, samples were precipitated with ethanol and resuspended in 2.5 μl loading buffer (80% formamide, 10 mM NaOH, 1 mM EDTA, 0.1% xylene cyanol and 0.1% bromophenol blue). Samples were heated to 90° C. and immediately loaded into DNA sequencing gels (6% polyacrylamide; 19:1, acrylamide:bis) containing 7M urea in (1×) TBE buffer. Electrophoresis was at 2500 V (60 W) for 4 hours. Gels were dried on 3M paper sheets and autoradiographed with Kodak XAR-2 film. See Pommier et al. (1991), supra.
Induction of top 2 cleavage by azatoxin was tested directly with the use of purified murine leukemia top 2. […] Sites of cleavage were also determined by DNA sequencing in the 5' flank of c-myc first intron.

SMILES | top 2 inhibition / top 2 activity (in words) (Topoisomerase II) | Topoisomerase II inhibition (Topoisomerase II) | DNA unwinding (SV40 DNA) | also measured
COc1cc([C@H]2c3[nH]c4ccccc4c3C[C@H]3COC(=O)N32)cc(OC)c1O [Compound 10, 5S, 11aS-3-One-5,4,11,11a-tetrahydro-5-(3,5-dimethoxy-4-hydroxyphenyl)-1H, GH-oxazolo[3'4':1,6]pyrido[3,4-b]indole] | inactive | .largecircle. | did not induce detectable DNA unwinding even at drug concentrations as high as 1 mM | –
COc1cc([C@@H]2c3[nH]c4ccccc4c3C[C@@H]3COC(=O)N32)cc(OC)c1O [Compound 9, 5R,11aR-3-One-5,4,11,11a-tetrahydro-5-(3,5-dimethoxy-4-hydroxyphenyl)-1H, 6H-oxazolo[3'4':1,6']pyrido[3,4-b]indole] | inactive | .largecircle. | – | –
COc1cc([C@@H]2c3cc4c(cc3[C@@H](O[C@@H]3O[C@@H]5CO[C@@H](C)O[C@H]5[C@H](O)[C@H]3O)[C@H]3COC(=O)[C@H]23)OCO4)cc(OC)c1O [VP-16, etoposide, reference compound] | – | – | – | suppression of DNA cleavage at high drug concentrations [1]: not suppressed at high drug concentrations (up to 1 mM)
COc1cc([C@@H]2c3cc4c(cc3[C@@H](O)[C@H]3COC(=O)[C@H]23)OCO4)cc(OC)c1O [DMEP, 4'-demethylepipodophyllotoxin, reference compound] | – | – | did not induce detectable DNA unwinding even at drug concentrations as high as 1 mM | top 2 cleavage potency (in words) [2]: at least as potent as VP-16; effect of hydroxyl substitution on top 2 activity (Topoisomerase II): increases activity
COc1cc([C@@H]2c3cc4c(cc3C[C@H]3COC(=O)[C@@H]32)OCO4)cc(OC)c1O [DMDP, 4'-demethyl-4-desoxypodophyllotoxin, reference compound] | – | – | did not induce detectable DNA unwinding even at drug concentrations as high as 1 mM | top 2 cleavage sites induced (number/amount) ([2]; SV40 and c-myc DNA, purified murine top 2): induced less cleavage that azatoxin; top 2 cleavage pattern ([2]; compared with other top 2 inhibitors): at distinct cleavages sites

Continued, in another order:

top 2 inhibition / top 2 activity (in words) (Topoisomerase II) | Topoisomerase II inhibition (Topoisomerase II) | SMILES | DNA unwinding (SV40 DNA) | also measured
abolished the top 2 activity | .largecircle. | O=C1OC[C@@H]2Cc3c([nH]c4ccccc34)[C@@H](c3ccc(O)cc3)N12 [Compound 3, 5R, 11aS-3-one-5,4,11,11a-tetrahydro-5-(4-hydroxyphenyl)-1H, 6H-oxazolo[3',4':1,6]pyrido[3,4-b]indole] | – | –
inactive | .largecircle. | COc1cc([C@@H]2C3=C(C[C@H]4COC(=O)N42)c2cccc4cccc3c24)cc(OC)c1O (relative stereo) [Compound 7, 5,11a-trans-3-one-5,4, 11, 11a-tetrahydro-5-(3,5-dimethoxy-4-hydroxyphenyl)-1H, 10H-oxazol [3', 4':1,6]pyrido[1,2-b]acenapthylene] | – | –
measurable but not strong top 2 activity | – | COc1cc([C@@H]2c3[nH]c4ccccc4c3[C@@H](O)[C@H]3COC(=O)N23)cc(OC)c1O [Compound 6, 5R,11R,11aS-3-One-11-hydroxy-5,4,11,11a-tetrahydro-5-(3,5-dimethoxy-4-hydroxyphenyl)-1H, 6H-oxazolo[3'4:1,6]pyrido[3,4-b]indole] | – | effect of hydroxyl substitution on top 2 activity (Topoisomerase II): significantly decreases top 2 activity
– | .largecircle. | COc1cc([C@@H]2c3[nH]c4ccccc4c3C[C@H]3COC(=O)N32)cc(OC)c1OC [Compound 4, 5R,11aS-3-one-5,4,11,11a,tetrahydro-5-(3,4,5-trimethoxyphenyl)-1H, 6H-oxazolo[3',4':1,6]pyrido[3,4-b]indole] | – | –
– | .smallcircle. | COc1cc([C@@H]2c3[nH]c4ccccc4c3C[C@H]3COC(=O)N32)ccc1O [Compound 2, 5R, 11aS-3-One-5,4,11,11a-tetrahydro-5-(3-methoxy-4-hydroxyphenyl)-1H, 6H-oxazolo[3', 4': 1.6]pyrido[3,4-b]indole] | – | factor of reduction of top 2 activity by monodemethoxylation of pendant ring (Topoisomerase II; versus azatoxin): 10
inactivity | .largecircle. | COc1cc([C@@H]2c3c([nH]c4ccccc34)C[C@H]3COC(=O)N32)cc(OC)c1O (relative stereo) [Compound 8] | did not induce detectable DNA unwinding even at drug concentrations as high as 1 mM | –
– | .largecircle. | CS(=O)(=O)Nc1ccc([C@@H]2c3[nH]c4ccccc4c3C[C@H]3COC(=O)N32)cc1 [Compound 5] | – | –
